Patent publication US9096863B2, “Biosynthetic engineering of glucosinolates” (University of Denmark, priority 2008, dated 2015)
Several values for one entry are separate records, joined by “and”; a condition that tells them apart may be missing. Equal entries are not always repeated.

Experiments:
GGP1 [1] = target: T1, GGP1 (Arabidopsis thaliana, UniProt Q9M0A7); assay: In-vitro assay for GGP1 activity with the standard substrate GPNA (absorbance at 405 nm); format: biochemical; design: His-tag (pRSET-A N-terminal leader) (N); made in house; host or cells: E. coli; conditions: 1 mM GPNA, crude E. coli extract, linear part of the GGP1 curve
T1 sequence (Q9M0A7 1-250): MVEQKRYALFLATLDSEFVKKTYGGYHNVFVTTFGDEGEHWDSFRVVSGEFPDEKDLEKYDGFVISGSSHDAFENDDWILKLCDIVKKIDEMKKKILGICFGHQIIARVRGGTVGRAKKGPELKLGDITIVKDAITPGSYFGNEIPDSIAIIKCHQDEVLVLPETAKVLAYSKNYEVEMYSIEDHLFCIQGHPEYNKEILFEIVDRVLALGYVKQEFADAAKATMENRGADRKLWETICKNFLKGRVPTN
Procedure: In vitro assays were assembled with […] of crude protein extract from a cleared E. coli lysate (before column purification) in 0.1 M Tris-HCl at pH 7.5 to a total volume of 150 μl. Assay is initiated by addition of GPNA to a final concentration of 1 mM and enzyme activity is measured by absorbance at 405 nm. Absorbance was measured with 5 minute intervals from time 0-20 minutes using a spectrophotometer.

GGP1 [2] = target: T1, GGP1; conditions: GS-X as substrate, 10 to 90 μM; purified recombinant His-tagged GGP1; ± SE; Michaelis-Menten fit
Procedure: Recombinant GGP1 was expressed in E. coli from the vector pRSET-A (Invitrogen) as an N-terminal His-tag fusion. Cells were grown in LB medium and induced by adding 0.02 mM IPTG at an OD600 of 0.1-0.4. After 16 hours of incubation at 18° C. and 220 rpm, cells were harvested and resuspended in binding buffer [100 mM Tris-HCl, 500 mM NaCl, 50 mM imidazole, pH 7.5] supplemented with 1 mM PMSF and 1 mM MgCl. Cell lysis was achieved by lysozyme treatment and subsequent sonication. Cell debris was spun down for 20 min at 20 000 g, and the supernatant was run through a Ni-NTA column. The column was washed with binding buffer, and bound protein was released with elution buffer [100 mM Tris-HCl, 500 mM NaCl, 500 mM imidazole, pH 7.5]. As a control, a parallel purification was performed for an empty pRSET-A vector.
200 ng of purified GGP1 or 200 ng of control protein were assayed in a final volume of 100 μL containing 20 mM Tris-HCl pH 7.5 and 20 μM GS-X. The reactions were stopped after 10 min upon addition of 300 μL methanol. After an overnight incubation at −20° C., the mixture was spun down for 20 min at 5 000 g and 200 μL of the supernatant were evaporated and redisolved in 50 μL of 75% methanol. Analysis was performed using the LC-MS/MS method previously described. For the determination of Km, similar assays were performed using a range of GS-X concentrations spanning from 10 to 90 μM. […]

activity of crude extract containing recombinant GGP1 versus control extract (cleavage to p-nitroanilide) (GGP1 [1])	Km (GGP1 [2])	Compound
around 10 times	–	N[C@@H](CCC(=O)Nc1ccc([N+](=O)[O-])cc1)C(=O)O [GPNA, gamma-glutamyl-p-nitroanilide]
–	56.6 µM and 57 µM	NC(CCC(=O)NC(CSC(Cc1ccccc1)=NO)C(=O)NCC(=O)O)C(=O)O [GS-X, S-(phenylacetohydroxymoyl)-L-glutathione]
